In patent publication US9623015B2, “Combination of an anti-cancer agent such as a tyrosinekinase inhibitor and a STAT5 antagonist, preferably a thiazolidinedione, for eliminating hematologic cancer stem cells in vivo and for preventing hematologic cancer relapse” (Commissariat à L'Energie Atomique et aux Energies …, priority 2012, dated 2017):
Entries after “also recorded” stand apart in the source; their conditions may differ.

Experiments:
CD34+ CP-CML cells = experiment: Liquid culture of CD34+ CP-CML cells (fold expansion, viable cells); assay type: cell-based, human; set-up: viab (%): concentration or dose not given beside the values; settings: for viab (%) / Fold exp: serum-free medium without cytokines; for Fold exp, mean: mean of 7 patients
Method: Cell culture and proliferation assays. K562 cells (2×10^5) were cultured in 96-well plates, in complete Dulbecco's Modified Eagle medium supplemented with 10% fetal calf serum (Gibco®, Life technologies) alone or with variable concentrations of pioglitazone or troglitazone. […] Eight replicates were used for each set of conditions and results were obtained after three independents experiments. CD34^+ cells from patients in CP-CML at diagnosis or umbilical cord blood were immunoselected (CD34 microBead Kit, Miltenyi Biotec) according to the manufacturer's instructions. […] Ph1^+-CD34^+ cells were cultured in serum free medium (SFM) StemSpan (StemCell Technologies) without growth factors.
Flow cytometry. […] For all experiment, cell viability was assessed using SYTOX® Blue dead cell stain (Invitrogen Life Technologies).

CP-CML LTC-ICs = experiment: LTC-IC assay with limiting dilution analysis; assay type: cell-based, human
Method: Colony Forming Cell (CFC) and Long Term Culture—Initiating Cell (LTC-IC) assays. […] Cells were scored and collected after 14 day incubation at 37° C. and 5% CO2. After scoring, colonies were washed with PBS and kept frozen in RNAlater® (Invitrogen) for subsequent analysis. […] After five weeks with weekly change of one half medium volume, all cells were transferred in alpha-MEM based methylcellulose medium (GF H4434, Stemcell technologies) to determine the total clonogenic cell content of each LTC. LTC-IC frequencies were determined using the L-Calc software (Stemcell technologies).

STAT5B mRNA = experiment: STAT5B RT-qPCR in CP-CML cells; assay type: cell-based, human; settings: CP-CML cells after 10 days of liquid culture without cytokines; normalized to GAPDH
Source text: RNA extraction and RT-qPCR analysis.

STAT5 = STAT5 phosphorylation (flow cytometry) and STAT5 protein (Western blot) in K562 cells; assay type: cell-based; settings: Imatinib 1 μM
Method: Intracellular STAT5 phosphorylation assays. […] Cells were fixed and permeabilized using Cytofix/Cytoperm kit (BD Pharmingen) and stained with Alexa Fluor® 488-anti-phospho-STAT5 mAb (BD Phosflow) or Alexa Fluor® 488-isotype-matched control to obtain fluorescence minus comparative in each experiment. Analysis was carried on a minimal number of 50,000 events in the viable cell gate. […] (untreated cells p-STAT5 MFI-non treated cells isotype-control MFI)-(drug treated cells p-STAT5 MR-drug treated cells isotype-control MFI). Western blot analysis. For STAT5 protein analysis, K562 cells (2.5×10^5) were lysed in RIPA lysis buffer on ice. […] Proteins were transferred to Hybond N+ filters (Amersham). Membranes were probed with the following antibodies: STAT5 (sc-1656), actin (sc-8432), and goat anti-mouse IgG-HRP (sc-2005) (Santa Cruz Biotechnology Inc.). Antibody binding was detected by the enhanced chemiluminescence ECL+ (Amersham).

[1] = Imatinib plasma levels in three CML patients; assay type: in vivo, human
[2] = tested on: human cord blood CD34+ cells expressing BCR-ABL; experiment: CFC assay after lentivector-mediated expression of BCR-ABL in cord blood CD34+ cells; assay type: cell-based; settings: BCR-ABL vs eGFP lentivector; drug added for 48 h prior; p<0.002
Method: For CFC assays, CD34^+ cells were suspended (1×10^4) in 3 ml of alpha-MEM based methylcellulose medium (GF H4434, Stemcell Technologies). Cells were scored and collected after 14 day incubation at 37° C. and 5% CO2.
An SIV GAE-SSFV-eGFP vector was used as a control.
Cells were suspended (1×10^6/ml) in StemSpan (StemCell Technologies, France) supplemented with protamine sulfate (4 μg/ml), SCF (100 ng/ml), Flt-3-L (100 ng/ml), IL-3 (20 ng/ml), and IL-6 (20 ng/ml), in a 96-well plate coated with RetroNectin® (Takara Shuzo Co., Japan). Cell suspensions were incubated for 16 hours. Lentiviral vectors were then added and cell suspensions incubated for 12 hours. Cells were washed twice before being seeded.

CML patients [3] = experiment: BCR-ABL/ABL RT-qPCR follow-up of three CML patients given pioglitazone on imatinib; assay type: in vivo, human
CML patients [4] = experiment: ACTIM clinical trial: molecular response and safety; assay type: in vivo, human
Source text: BCR-ABL transcript level was monitored every 3 months during the study period. Primary objective was the proportion of patients achieving a confirmed undetectable level of BCR-ABL transcript. Secondary objectives included cumulative incidence of CMR4.5 and safety.

[5] = ACTIM companion study: imatinib trough levels; assay type: in vivo, human; settings: p=ns
[6] = pioglitazone added to imatinib, 24 evaluable patients

Method for CP-CML CD34+ cells: CSFE assays. Fresh CD34^+-enriched cells were stained with 2 μM of 5-(and 6-) carboxyfluorescein diacetate succinimidyl diester (CFSE, Invitrogen). […] Cells were harvested at variable time points as indicated, collected in BD Trucount™ tubes for absolute count (BD Biosciences) and labeled with anti-CD45 and anti-CD34. Then, cells were diluted in 1 mL of phosphate-buffered saline (PBS, Invitrogen Life Technologies) containing 2% fetal calf serum (PAA) and stained for viability. All analyses were carried out on a BD FACS Canto2 Flow Cytometer.

Which results are given for `Cc1ccc(NC(=O)c2ccc(CN3CCN(C)CC3)cc2)cc1Nc1nccc(-c2cccnc2)n1` [Imatinib]?
viab (%) (CD34+ CP-CML cells; Patient 1, D 3 in culture): 0.1%; viab (%) (CD34+ CP-CML cells; Patient 1, D 7 in culture): 0.10%; viab (%) (CD34+ CP-CML cells; Patient 2, D 3 in culture): 31.00%; viab (%) (CD34+ CP-CML cells; Patient 2, D 7 in culture): 29.70%; viab (%) (CD34+ CP-CML cells; Patient 3, D 3 in culture): 4.10%; viab (%) (CD34+ CP-CML cells; Patient 3, D 7 in culture): 5.90%; viab (%) (CD34+ CP-CML cells; Patient 4, D 3 in culture): 86.00%; viab (%) (CD34+ CP-CML cells; Patient 4, D 7 in culture): 54.00%; viab (%) (CD34+ CP-CML cells; Patient 5, D 3 in culture): 54.5%; viab (%) (CD34+ CP-CML cells; Patient 5, D 7 in culture): 56.00%; viab (%) (CD34+ CP-CML cells; Patient 6, D 3 in culture): 85.00%; viab (%) (CD34+ CP-CML cells; Patient 6, D 7 in culture): 73.00%; viab (%) (CD34+ CP-CML cells; Patient 7, D 3 in culture): 84.00%; viab (%) (CD34+ CP-CML cells; Patient 7, D 7 in culture): 66.00%; reduction of the frequency of CP-CML LTC-ICs (in words) (CP-CML LTC-ICs; p=0.067 and p=0.02): unable to reduce significantly; decrease of STAT5B mRNA levels (STAT5B mRNA): 1.5 fold; action on STAT5 phosphorylation (STAT5): acts rapidly (minutes) by preventing STAT5 phosphorylation; plasma levels ([1]; Patient 1, imatinib 300-400 mg/day): 924 ng/mL; plasma levels ([1]; Patient 2, imatinib 300-400 mg/day): 310 ng/mL; plasma levels ([1]; Patient 3, imatinib 400 mg/day): 790 ng/mL; viable CD34+ cells that never divided or had divided only once (CP-CML CD34+ cells; Patient 4, vs. 5% for the untreated control): 34%; effect on cell cycle status / quiescence (CP-CML CD34+ cells; liquid culture without cytokines): induced a selection of insensitive quiescent CML cells

Which “degree of reduction in colony forming cells (CFC), greater when BCR-ABL was expressed” value [2] does the source give for `CCc1ccc(CCOc2ccc(CC3SC(=O)NC3=O)cc2)nc1` (centres unmarked) [pioglitazone] here?
The value was 1.9 fold.

What about the Fold exp (CD34+ CP-CML cells; Patient 1, D 3 in culture) of the same compound?
Its Fold exp is 0.75 fold.

What about the “viab (%)” value (CD34+ CP-CML cells; Patient 1, D 3 in culture) of the same compound?
Its value is 19.00%.

What about the Fold exp (CD34+ CP-CML cells; Patient 1, D 7 in culture) of the same compound?
Its Fold exp is 0.39 fold.

And the “viab (%)” value (CD34+ CP-CML cells; Patient 1, D 7 in culture)?
Its value is 9.00%.

What about the Fold exp (CD34+ CP-CML cells; Patient 2, D 3 in culture) of the same compound?
The Fold exp was 1.25 fold.

What about the “viab (%)” value (CD34+ CP-CML cells; Patient 2, D 3 in culture) of the same compound?
The value was 47.00%.

What about the Fold exp (CD34+ CP-CML cells; Patient 2, D 7 in culture) of the same compound?
The Fold exp was 2.96 fold.

And the “viab (%)” value (CD34+ CP-CML cells; Patient 2, D 7 in culture)?
The value was 71.00%.

And the Fold exp (CD34+ CP-CML cells; Patient 3, D 3 in culture)?
The Fold exp was 0.27 fold.

What about the “viab (%)” value (CD34+ CP-CML cells; Patient 3, D 3 in culture) of the same compound?
The value was 9.90%.

What about the Fold exp (CD34+ CP-CML cells; Patient 3, D 7 in culture) of the same compound?
Its Fold exp is 1.69 fold.

What about the “viab (%)” value (CD34+ CP-CML cells; Patient 3, D 7 in culture) of the same compound?
Its value is 17.90%.

And the Fold exp (CD34+ CP-CML cells; Patient 4, D 3 in culture)?
Its Fold exp is 2.02 fold.

What about the “viab (%)” value (CD34+ CP-CML cells; Patient 4, D 3 in culture) of the same compound?
Its value is 93.00%.

What about the Fold exp (CD34+ CP-CML cells; Patient 4, D 7 in culture) of the same compound?
Its Fold exp is 1.67 fold.

What about the “viab (%)” value (CD34+ CP-CML cells; Patient 4, D 7 in culture) of the same compound?
The value was 54.00%.

And the Fold exp (CD34+ CP-CML cells; Patient 5, D 3 in culture)?
Its Fold exp is 1.32 fold.

What about the “viab (%)” value (CD34+ CP-CML cells; Patient 5, D 3 in culture) of the same compound?
Its value is 73.00%.

What about the Fold exp (CD34+ CP-CML cells; Patient 5, D 7 in culture) of the same compound?
The Fold exp was 0.93 fold.

What about the “viab (%)” value (CD34+ CP-CML cells; Patient 5, D 7 in culture) of the same compound?
Its value is 86.00%.

What about the Fold exp (CD34+ CP-CML cells; Patient 6, D 3 in culture) of the same compound?
Its Fold exp is 1.69 fold.

And the “viab (%)” value (CD34+ CP-CML cells; Patient 6, D 3 in culture)?
The value was 88.00%.

And the Fold exp (CD34+ CP-CML cells; Patient 6, D 7 in culture)?
Its Fold exp is 1.87 fold.

And the “viab (%)” value (CD34+ CP-CML cells; Patient 6, D 7 in culture)?
The value was 85.00%.

And the Fold exp (CD34+ CP-CML cells; Patient 7, D 3 in culture)?
Its Fold exp is 0.86 fold.

And the “viab (%)” value (CD34+ CP-CML cells; Patient 7, D 3 in culture)?
The value was 84.00%.

And the Fold exp (CD34+ CP-CML cells; Patient 7, D 7 in culture)?
The Fold exp was 1.48 fold.

What about the “viab (%)” value (CD34+ CP-CML cells; Patient 7, D 7 in culture) of the same compound?
Its value is 33.00%.

And the “Fold exp, mean” value (CD34+ CP-CML cells; D 3 in culture)?
Its value is 1.17 fold.

And the “Fold exp, mean” value (CD34+ CP-CML cells; D 7 in culture)?
Its value is 1.54 fold.

What about the “reduction of the frequency of CP-CML LTC-ICs” value (CP-CML LTC-ICs; limiting dilution analysis) of the same compound?
The value was 2.4 fold.

What about the “decrease of STAT5B mRNA levels” value (STAT5B mRNA) of the same compound?
Its value is 8.5 fold.

And the “duration of CMR(Slog)” value (CML patients [3]; Patient 1, pioglitazone 30 mg/day added after 5 years of imatinib therapy)?
Its value is 56 months.

And the “duration of CMR(Slog)” value (CML patients [3]; Patient 2, pioglitazone 30 mg/day added after 6 year of imatinib therapy, then withdrew)?
The value was 12 months.

What about the “time without molecular relapse after stopping imatinib treatment” value (CML patients [3]; Patient 3) of the same compound?
Its value is 6 months.

And the “time to CMR(Slog)” value (CML patients [3]; Patient 3, pioglitazone 45 mg/day added to imatinib)?
The value was 6 months.

What about the “duration of CMR(Slog)” value (CML patients [3]; Patient 3, pioglitazone 45 mg/day added to imatinib 400 mg/day) of the same compound?
The value was 28 months.

What about the “patients with a confirmed undetectable level of BCR-ABL transcript” value (CML patients [4]; pioglitazone 30 mg/d 2 months then 45 mg/d added to imatinib, 24 evaluable patients) of the same compound?
The value was 14%.

What about the “discontinuation due to adverse events” value (CML patients [4]; [6]) of the same compound?
The value was “No patient discontinued due to adverse events”.

What about the main adverse events (CML patients [4]; [6]) of the same compound?
Its main adverse events is “weight gain and worsening fluid retention in 3 patients”.

What about the “one year cumulative incidence of CMR4.5” value (CML patients [4]; pioglitazone added to imatinib, control group 27% (p=0.02)) of the same compound?
The value was 57%.

What about the “interaction between imatinib and pioglitazone in term of through level” value [5] of the same compound?
The value was “No interaction; also recorded: lack of interaction”.
